From ChEMBL document CHEMBL5550128, “Discovery and preclinical evaluations of TQB3616, a novel CDK4-biased inhibitor” (Bioorg Med Chem Lett, 2024)

Assays:
[1] = Aqueous solubility of compound at pH <=4.5; format: physicochemical
MIA PaCa-2 = assay: Inhibition of cell proliferation in human MIA PaCa-2 cells at 0.3 uM incubated for 72 hrs by Cell Titer Glo assay relative to control; format: functional
SK-MEL-28 = assay: Inhibition of cell proliferation in human SK-MEL-28 cells at 0.3 uM incubated for 72 hrs by Cell Titer Glo assay relative to control; format: functional
MCF7 [2] = assay: Induction of cell cycle arrest at S phase in Rb-proficient human MCF7 cells at 0.16 uM (reference value: 19.19 %); format: functional
MCF7 [3] = assay: Induction of cell cycle arrest at G1 phase in Rb-proficient human MCF7 cells at 0.16 uM (reference value: 55.9 %); format: functional
NCI-H520 = assay: Inhibition of cell proliferation in human NCI-H520 cells at 0.3 uM incubated for 72 hrs by Cell Titer Glo assay relative to control; format: functional
[4] = AUC (0 to last) in Beagle dog at 2 mg/kg, po; format: ADME, organism-based, Canis lupus familiaris; conditions: in vivo
[5] = Volume of distribution at steady state in Sprague-Dawley rat at 1 mg/kg, iv; format: ADME, organism-based; conditions: in vivo, read-out: Vdss
MKN-45 = assay: Inhibition of cell proliferation in human MKN-45 cells at 0.3 uM incubated for 72 hrs by Cell Titer Glo assay relative to control; format: functional
[6] = Half life in Sprague-Dawley rat at 1 mg/kg, iv; format: ADME, organism-based; conditions: in vivo
MCF7 [7] = assay: Induction of cell cycle arrest at G2 phase in Rb-proficient human MCF7 cells at 0.16 uM (reference value: 24.74 %); format: functional
MV4-11 = assay: Inhibition of cell proliferation in human MV4-11 cells at 0.3 uM incubated for 72 hrs by Cell Titer Glo assay relative to control; format: functional
KG-1 = assay: Inhibition of cell proliferation in human KG-1 cells at 0.3 uM incubated for 72 hrs by Cell Titer Glo assay relative to control; format: functional
Cytochrome P450 2C9 = Cytochrome P450 2C9 (Homo sapiens, UniProt P11712); assay: Inhibition of CYP2C9 (unknown origin) using […] as substrate; format: ADME
[8] = Toxicity in mouse xenografted with human PDX ES-06-0130 cells assessed as body weight change at 40 mg/kg, po qd for 3 weeks relative to control; format: organism-based; conditions: in vivo, 504 h
[9] = Cmax in Beagle dog at 2 mg/kg, po; format: ADME, organism-based, Canis lupus familiaris; conditions: in vivo
[10] = molecular target: Voltage-gated inwardly rectifying potassium channel KCNH2 (Homo sapiens, UniProt Q12809); assay: Inhibition of hERG; format: toxicity
[11] = AUC (0 to last) in CD-1 mouse at 2 mg/kg, po; format: ADME, organism-based; conditions: in vivo
[12] = Lipophilicity, logD of compound at pH 7.4 in Octanol buffer; format: physicochemical
[13] = molecular target: T1, Retinoblastoma-associated protein (Homo sapiens) (UniProt P06400); assay: Inhibition of Rb phosphorylation in human MCF7 cells assessed as decrease in FoxM1 level incubated for 24 to 48 hrs by In-cell western assay; format: cell-based; conditions: dose 100-500 nM, time 24-48 hrs
T1 sequence (whole entry): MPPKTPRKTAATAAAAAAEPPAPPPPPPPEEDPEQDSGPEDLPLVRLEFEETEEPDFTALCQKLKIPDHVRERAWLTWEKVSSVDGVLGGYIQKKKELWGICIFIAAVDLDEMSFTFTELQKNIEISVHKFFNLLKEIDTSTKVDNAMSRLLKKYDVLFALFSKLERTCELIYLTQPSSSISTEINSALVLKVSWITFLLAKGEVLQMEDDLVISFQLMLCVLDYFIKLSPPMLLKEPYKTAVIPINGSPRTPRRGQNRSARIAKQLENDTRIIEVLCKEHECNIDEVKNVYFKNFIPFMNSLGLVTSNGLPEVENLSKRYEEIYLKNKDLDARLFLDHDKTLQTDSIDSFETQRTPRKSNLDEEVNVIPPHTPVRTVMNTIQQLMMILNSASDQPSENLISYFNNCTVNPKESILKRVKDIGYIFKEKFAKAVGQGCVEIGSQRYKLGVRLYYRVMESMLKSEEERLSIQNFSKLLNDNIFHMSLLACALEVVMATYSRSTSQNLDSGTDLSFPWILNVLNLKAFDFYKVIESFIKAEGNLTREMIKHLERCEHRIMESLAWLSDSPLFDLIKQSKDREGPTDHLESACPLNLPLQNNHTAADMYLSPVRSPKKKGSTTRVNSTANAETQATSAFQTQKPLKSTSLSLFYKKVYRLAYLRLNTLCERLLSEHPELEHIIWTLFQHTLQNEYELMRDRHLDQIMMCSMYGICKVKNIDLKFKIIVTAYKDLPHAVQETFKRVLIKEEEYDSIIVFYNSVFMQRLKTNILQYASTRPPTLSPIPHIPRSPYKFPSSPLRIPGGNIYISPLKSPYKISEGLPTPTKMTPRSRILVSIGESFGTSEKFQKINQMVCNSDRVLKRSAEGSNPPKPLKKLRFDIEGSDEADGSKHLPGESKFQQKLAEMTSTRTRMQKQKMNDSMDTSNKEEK

[14] = Plasma protein in human assessed as unbound fraction; format: ADME, cell-free
[15] = molecular target: T1, Retinoblastoma-associated protein (Homo sapiens); assay: Inhibition of Rb phosphorylation in human MCF7 cells incubated for 24 to 48 hrs by In-cell western assay; format: cell-based; conditions: dose 100-500 nM, time 24-48 hrs
MDA-MB-436 = assay: Induction of cell cycle arrest at G2 phase in Rb-deficient human MDA-MB-436 cells at 0.16 uM (reference value: 28.59 %); format: functional
[16] = Volume of distribution at steady state in Beagle dog at 0.6 mg/kg, iv; format: ADME, organism-based, Canis lupus familiaris; conditions: in vivo, read-out: Vdss
[17] = AUC (0 to last) in Sprague-Dawley rat at 6 mg/kg, po; format: ADME, organism-based; conditions: in vivo
[18] = Toxicity in mouse xenografted with human MCF7 cells assessed as drug tolerance at 5 to 15 mg/kg, po for 3 weeks; format: organism-based; conditions: in vivo, 504 h, dose 5-15 mg/kg
[19] = molecular target: T1, Retinoblastoma-associated protein (Homo sapiens); assay: Inhibition of Rb phosphorylation in human MCF7 cells at 100 to 500 nM by In-cell western assay; format: cell-based; conditions: dose 100-500 nM, time 24-48 hrs, TDE = time-dependent effect
[20] = Volume of distribution at steady state in CD-1 mouse at 0.5 mg/kg, iv; format: ADME, organism-based; conditions: in vivo, read-out: Vdss
MCF7 [21] = assay: Antitumor activity against human MCF7 cells xenografted in mouse at 15 mg/kg, po qd for 3 weeks relative to control; format: functional; conditions: MCF7, 504 h, read-out: TGI
Cytochrome P450 1A2 = Cytochrome P450 1A2 (Homo sapiens, UniProt P05177); assay: Inhibition of CYP1A2 (unknown origin) using […] as substrate; format: ADME
[22] = Inhibition of cell proliferation in human MINO cells at 0.3 uM incubated for 72 hrs by Cell Titer Glo assay relative to control; format: functional
CAL-27 = assay: Inhibition of cell proliferation in human CAL-27 cells at 0.3 uM incubated for 72 hrs by Cell Titer Glo assay relative to control; format: functional
A673 = assay: Inhibition of cell proliferation in human A673 cells at 0.3 uM incubated for 72 hrs by Cell Titer Glo assay relative to control; format: functional

Chain of Cytochrome P450 2C9 (P11712 whole entry): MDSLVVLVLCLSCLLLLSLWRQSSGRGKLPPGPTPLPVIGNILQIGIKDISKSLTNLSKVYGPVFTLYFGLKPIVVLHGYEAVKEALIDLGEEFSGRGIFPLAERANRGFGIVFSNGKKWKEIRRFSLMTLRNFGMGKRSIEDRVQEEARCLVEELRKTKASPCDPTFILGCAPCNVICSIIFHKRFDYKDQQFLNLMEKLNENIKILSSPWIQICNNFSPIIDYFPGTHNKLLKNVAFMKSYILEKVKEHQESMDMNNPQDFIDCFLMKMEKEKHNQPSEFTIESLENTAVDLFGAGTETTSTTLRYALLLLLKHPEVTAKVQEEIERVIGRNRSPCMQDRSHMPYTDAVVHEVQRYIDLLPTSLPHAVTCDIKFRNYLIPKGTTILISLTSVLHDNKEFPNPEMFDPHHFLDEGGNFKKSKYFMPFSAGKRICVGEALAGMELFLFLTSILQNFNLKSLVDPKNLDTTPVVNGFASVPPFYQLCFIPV
Chain of Cytochrome P450 1A2 (P05177 whole entry): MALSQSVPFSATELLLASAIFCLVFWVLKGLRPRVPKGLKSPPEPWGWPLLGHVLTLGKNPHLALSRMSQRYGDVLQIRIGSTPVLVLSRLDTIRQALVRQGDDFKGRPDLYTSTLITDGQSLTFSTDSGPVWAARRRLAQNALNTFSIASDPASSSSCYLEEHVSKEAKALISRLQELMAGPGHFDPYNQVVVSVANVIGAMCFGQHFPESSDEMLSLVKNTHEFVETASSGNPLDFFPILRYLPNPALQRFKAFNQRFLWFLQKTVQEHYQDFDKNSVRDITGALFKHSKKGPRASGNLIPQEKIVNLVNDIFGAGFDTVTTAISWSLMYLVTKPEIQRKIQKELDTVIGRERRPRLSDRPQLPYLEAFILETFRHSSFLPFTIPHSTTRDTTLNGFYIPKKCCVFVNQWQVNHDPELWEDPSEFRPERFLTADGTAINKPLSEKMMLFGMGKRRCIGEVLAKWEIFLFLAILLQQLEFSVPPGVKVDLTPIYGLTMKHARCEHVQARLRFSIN
Chain of Voltage-gated inwardly rectifying potassium channel KCNH2 (Q12809 whole entry): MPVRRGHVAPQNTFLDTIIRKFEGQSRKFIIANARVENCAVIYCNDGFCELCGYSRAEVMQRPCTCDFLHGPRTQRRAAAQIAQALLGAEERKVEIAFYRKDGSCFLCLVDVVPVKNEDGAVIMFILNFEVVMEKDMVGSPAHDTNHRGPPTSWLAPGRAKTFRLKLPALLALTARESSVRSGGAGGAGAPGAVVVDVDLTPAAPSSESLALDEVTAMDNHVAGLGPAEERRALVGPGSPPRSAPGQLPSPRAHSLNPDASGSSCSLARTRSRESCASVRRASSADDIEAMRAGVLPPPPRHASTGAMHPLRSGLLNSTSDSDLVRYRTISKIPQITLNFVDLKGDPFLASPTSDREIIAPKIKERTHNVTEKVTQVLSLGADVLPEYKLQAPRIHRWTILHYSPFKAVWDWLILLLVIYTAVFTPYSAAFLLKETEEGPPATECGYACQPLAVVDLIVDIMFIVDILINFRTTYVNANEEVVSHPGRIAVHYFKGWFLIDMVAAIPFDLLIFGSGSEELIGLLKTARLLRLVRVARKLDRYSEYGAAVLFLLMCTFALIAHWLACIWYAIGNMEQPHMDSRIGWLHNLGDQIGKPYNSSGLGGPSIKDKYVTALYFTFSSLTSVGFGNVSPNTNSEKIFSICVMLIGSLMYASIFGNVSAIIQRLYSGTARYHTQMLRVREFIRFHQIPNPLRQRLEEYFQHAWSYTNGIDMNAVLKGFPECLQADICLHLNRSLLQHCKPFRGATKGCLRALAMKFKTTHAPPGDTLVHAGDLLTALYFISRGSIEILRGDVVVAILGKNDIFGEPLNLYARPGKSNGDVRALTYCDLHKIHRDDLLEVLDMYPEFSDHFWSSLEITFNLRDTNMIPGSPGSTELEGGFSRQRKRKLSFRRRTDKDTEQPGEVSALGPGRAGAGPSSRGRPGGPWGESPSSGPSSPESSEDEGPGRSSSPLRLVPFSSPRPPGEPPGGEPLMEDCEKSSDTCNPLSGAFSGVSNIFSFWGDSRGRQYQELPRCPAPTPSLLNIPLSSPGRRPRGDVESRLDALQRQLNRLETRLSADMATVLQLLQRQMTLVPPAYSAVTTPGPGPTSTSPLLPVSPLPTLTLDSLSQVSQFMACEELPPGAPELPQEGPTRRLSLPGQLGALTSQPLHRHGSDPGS

**Q.** With `CC(C)c1c2cc(-c3nc(Nc4ccc(N5CCNCC5)cn4)ncc3F)ccc2nn1C` [CULMERCICLIB] as the compound, how does the solubility [1] read?
**A.** Its solubility is over 2000 µg/mL.

**Q.** What about the inhibition at 0.3 µM (MIA PaCa-2) of the same compound?
**A.** Its inhibition at 0.3 µM is 48%.

**Q.** What about the inhibition at 0.3 µM (SK-MEL-28) of the same compound?
**A.** Its inhibition at 0.3 µM is 13.7%.

**Q.** And the Activity (MCF7 [2])?
**A.** The Activity was 5.91%.

**Q.** And the Activity (MCF7 [3])?
**A.** The Activity was 68.93%.

**Q.** And the inhibition at 0.3 µM (NCI-H520)?
**A.** Its inhibition at 0.3 µM is 24%.

**Q.** What about the AUC(0-t) [4] of the same compound?
**A.** The AUC(0-t) was 1.24 µM·h.

**Q.** What about the Vd [5] of the same compound?
**A.** Its Vd is 11 L/kg.

**Q.** And the inhibition at 0.3 µM (MKN-45)?
**A.** The inhibition at 0.3 µM was 53.1%.

**Q.** What about the half-life [6] of the same compound?
**A.** The half-life was 4.2 h.

**Q.** What about the Activity (MCF7 [7]) of the same compound?
**A.** Its Activity is 24.73%.

**Q.** And the inhibition at 0.3 µM (MV4-11)?
**A.** The inhibition at 0.3 µM was 71.1%.

**Q.** What about the inhibition in vivo at 0.3 µM (KG-1) of the same compound?
**A.** The inhibition in vivo at 0.3 µM was 61.1%.

**Q.** What about the IC50 (Cytochrome P450 2C9) of the same compound?
**A.** The IC50 was 23 µM.

**Q.** And the Activity [8]?
**A.** Its Activity is under 10%.

**Q.** What about the Cmax [9] of the same compound?
**A.** The Cmax was 109 nM.

**Q.** And the IC50 [10]?
**A.** The IC50 was 5.3 µM.

**Q.** And the AUC(0-t) [11]?
**A.** The AUC(0-t) was 1.37 µM·h.

**Q.** What about the logD [12] of the same compound?
**A.** The logD was 2.4.

**Q.** And the inhibition [13]?
**A.** Its inhibition is “Dose-Dependent Effect”.

**Q.** And the fraction unbound [14]?
**A.** The fraction unbound was 0.08.

**Q.** And the inhibition [15]?
**A.** The inhibition was “Dose-Dependent Effect”.

**Q.** What about the Activity (MDA-MB-436) of the same compound?
**A.** The Activity was 26.29%.

**Q.** What about the Vd [16] of the same compound?
**A.** Its Vd is 17.1 L/kg.

**Q.** What about the AUC(0-t) [17] of the same compound?
**A.** The AUC(0-t) was 5.88 µM·h.

**Q.** And the Activity [18]?
**A.** The Activity was “Non-Toxic”.

**Q.** And the inhibition [19]?
**A.** Its inhibition is “Tde”.

**Q.** And the Vd [20]?
**A.** The Vd was 5 L/kg.

**Q.** What about the inhibition in vivo at 15 mg/kg (MCF7 [21]) of the same compound?
**A.** The inhibition in vivo at 15 mg/kg was 93%.

**Q.** What about the IC50 (Cytochrome P450 1A2) of the same compound?
**A.** The IC50 was over 50 µM.

**Q.** What about the inhibition at 0.3 µM [22] of the same compound?
**A.** The inhibition at 0.3 µM was 67%.

**Q.** And the inhibition at 0.3 µM (CAL-27)?
**A.** The inhibition at 0.3 µM was 0.6%.

**Q.** And the inhibition at 0.3 µM (A673)?
**A.** Its inhibition at 0.3 µM is -4.1%.
